Results from patent publication US7932420B2, “Sulfonamides” (Allergan, Inc., priority 2005, dated 2011).

Key:
hEP2 [1] = molecular target: T1, hEP2 (Homo sapiens, UniProt P43116); test: in-vitro binding to prostaglandin receptor (bhEP2); conditions: human EP2
hEP2 [2] = molecular target: T1, hEP2; test: in-vitro activity at prostaglandin receptor (fhEP2); type: cell-based; conditions: functional, human EP2
hEP4 = hEP4 (Homo sapiens, UniProt P35408); test: in-vitro binding to prostaglandin receptor (bhEP4); conditions: human EP4
[3] = test system: EP2 and EP4 receptors as compared to the FP, EP1, TP, IP and DP receptors; test: in-vitro assay for binding to and activity at prostaglandin receptors (selectivity)

T1 sequence (P43116 whole entry): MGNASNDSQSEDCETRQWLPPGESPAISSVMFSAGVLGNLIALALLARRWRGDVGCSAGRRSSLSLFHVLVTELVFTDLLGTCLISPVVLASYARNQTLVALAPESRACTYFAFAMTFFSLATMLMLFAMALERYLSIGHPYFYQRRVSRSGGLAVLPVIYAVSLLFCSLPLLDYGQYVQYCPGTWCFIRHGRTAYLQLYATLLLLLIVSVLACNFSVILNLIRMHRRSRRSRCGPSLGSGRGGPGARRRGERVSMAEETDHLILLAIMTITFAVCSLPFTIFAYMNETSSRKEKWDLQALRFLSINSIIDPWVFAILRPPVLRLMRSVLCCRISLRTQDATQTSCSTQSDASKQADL
Sequence of hEP4 (P35408 whole entry): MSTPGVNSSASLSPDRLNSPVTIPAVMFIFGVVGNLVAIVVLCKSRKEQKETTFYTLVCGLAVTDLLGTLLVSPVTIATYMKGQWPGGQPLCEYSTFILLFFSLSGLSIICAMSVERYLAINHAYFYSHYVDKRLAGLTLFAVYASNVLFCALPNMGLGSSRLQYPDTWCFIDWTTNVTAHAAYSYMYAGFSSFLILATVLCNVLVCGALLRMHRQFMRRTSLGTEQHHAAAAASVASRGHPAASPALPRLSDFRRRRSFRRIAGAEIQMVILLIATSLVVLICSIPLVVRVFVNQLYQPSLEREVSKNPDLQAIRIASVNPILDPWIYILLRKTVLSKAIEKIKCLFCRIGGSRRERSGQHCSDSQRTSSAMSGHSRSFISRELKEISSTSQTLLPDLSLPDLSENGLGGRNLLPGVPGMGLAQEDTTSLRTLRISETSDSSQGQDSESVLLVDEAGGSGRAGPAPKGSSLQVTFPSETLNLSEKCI

`CCCC1(C(O)C/C=C/CN(CCCCCCC(=O)O)S(C)(=O)=O)CCC1` (stereo not shown) [Example 10, 7-[[5-Hydroxy-5-(1-propylcyclobutyl)pent-2-enyl]methanesulfonylamino]heptanoic acid] gave a bhEP2 (hEP2 [1]) of 5560, a fhEP2 (hEP2 [2]) of 248 and a bhEP4 (hEP4) of 50K. The “selectivity among prostaglandin receptors” value [3] was “selective at the EP2 and EP4 receptors”.
